From PMC4157036, “Does Long-Term Administration of a Beta-Blocker (Timolol) Induce Fibril-Based Cataract Formation In-vivo?” (Iranian Journal of Pharmaceutical Research : IJPR, 2014)

Biological target: T1, bovine α-crystallin (Bos taurus, UniProt P02470+P02510)
T1 construct: gene CRYAA; native hetero-oligomer purified from bovine lenses (cows under two years), mixture of alphaA and alphaB subunits at about 3:1; no tag
T1 sequence (P02470 1-173): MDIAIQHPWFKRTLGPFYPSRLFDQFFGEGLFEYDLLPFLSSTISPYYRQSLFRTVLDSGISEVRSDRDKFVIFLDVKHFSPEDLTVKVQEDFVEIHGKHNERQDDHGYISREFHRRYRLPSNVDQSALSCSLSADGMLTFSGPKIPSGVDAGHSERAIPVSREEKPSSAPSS
T1 sequence (P02510 1-175): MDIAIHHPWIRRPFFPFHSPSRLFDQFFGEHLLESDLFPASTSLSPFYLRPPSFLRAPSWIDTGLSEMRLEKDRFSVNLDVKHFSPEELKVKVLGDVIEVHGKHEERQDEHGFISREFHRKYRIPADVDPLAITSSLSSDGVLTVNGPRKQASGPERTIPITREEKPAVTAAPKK
Assay: turbidity at […] nm of GdnHCl-induced aggregation at […] °C
Conditions: 5 µM timolol, protein 0.6 mg/mL, 0.1 M phosphate pH 7.4, 60 °C, enhancer of aggregation, direct binding not measured

aggregation extent (fold): ~ 3 fold
Compound: CC(C)(C)NC[C@H](O)COc1nsnc1N1CCOCC1 [timolol]
